Among the test systems are A549 NSCLC; COLO 205 colon; M14 melanoma; MDA-MB-231 breast; MOLT-4 leukemia; OVCAR-8 ovarian; SNB-19 CNS; TK-10 renal; U251 CNS; UACC-62 melanoma.
Holding throughout (test): NCI anticancer screen, dose series, 48 h

Molecules are shown by their SMILES. “And” between values parts separate entries of the source, which are not always exact repeats. Equal entries are not always repeated.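 Compound exposure: 48 hours, 5 concentrations, 96-well plates. GI50 is the concentration that inhibits growth by half. TGI is the concentration that stops growth completely.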

Take `COc1ccc(-c2cc(-c3nnc(SCC(=O)Nc4ccc(C(C)=O)cc4)o3)c3ccccc3n2)cc1`: the GI50 is above 100 µM in the test on A549 NSCLC; above 100 µM in the test with COLO 205 colon; above 100 µM in the test with M14 melanoma; 19.4 µM in the test with MDA-MB-231 breast; above 100 µM in the test on MOLT-4 leukemia; 48.9 µM in the test with OVCAR-8 ovarian. In addition, the GI50 in the test with SNB-19 CNS was 12.6 µM; with TK-10 renal, 28.7 µM; in the test with U251 CNS it was 10.2 µM; in the test on UACC-62 melanoma, 27.1 µM. The TGI in the test with A549 NSCLC, in the test on COLO 205 colon, in the test on M14 melanoma, in the test on MDA-MB-231 breast, in the test on MOLT-4 leukemia and in the test with OVCAR-8 ovarian was above 100 µM each time. Also, the TGI in the test on SNB-19 CNS was above 100 µM; in the test on TK-10 renal, 78.6 µM; in the test on U251 CNS, 55.9 µM; in the test on UACC-62 melanoma, above 100 µM.

On to `O=[N+]([O-])/C=C/c1ccc([N+](=O)[O-])cc1`, for which the GI50 with A549 NSCLC was 3.15 µM; in the test with COLO 205 colon, 1.97 µM; in the test with M14 melanoma it was 1.55 µM; in the test on MDA-MB-231 breast, 2.71 µM; in the test with MOLT-4 leukemia, 5.81 µM; with OVCAR-8 ovarian, 3.68 µM. The GI50 in the test with SNB-19 CNS was 3.53 µM; in the test on TK-10 renal, 2.7 µM; in the test with U251 CNS it was 1.78 µM; with UACC-62 melanoma, 2.09 µM. Also, the TGI came out at 13.1 µM with A549 NSCLC; 4.22 µM in the test on COLO 205 colon; 3.22 µM with M14 melanoma; 8.73 µM with MDA-MB-231 breast; 62.5 µM with MOLT-4 leukemia; 15.1 µM in the test with OVCAR-8 ovarian. Further, the TGI is 14.9 µM in the test on SNB-19 CNS, 6.19 µM with TK-10 renal, 3.52 µM in the test on U251 CNS and 6.15 µM in the test with UACC-62 melanoma.

`C=C(C)[C@@H]1CC[C@]2(C(=O)NCCNCCNCCN)CC[C@]3(C)[C@H](CC[C@@H]4[C@@]5(C)CCC(=O)C(C)(C)[C@@H]5CC[C@]43C)[C@@H]12`: the GI50 with A549 NSCLC was 7.69 µM; in the test on COLO 205 colon, 8.74 µM; with M14 melanoma, 8.38 µM; with MDA-MB-231 breast, 8.04 µM; in the test on MOLT-4 leukemia, 6.96 µM; in the test on OVCAR-8 ovarian, 8.41 µM. The GI50 is 8.5 µM in the test on SNB-19 CNS, 10.1 µM with TK-10 renal, 7.34 µM with U251 CNS and 8.96 µM with UACC-62 melanoma. In addition, the TGI with A549 NSCLC was found to be 15.9 µM; in the test with COLO 205 colon, 19 µM; with M14 melanoma, 19 µM; in the test with MDA-MB-231 breast, 15.8 µM; in the test with MOLT-4 leukemia it was 31.1 µM; with OVCAR-8 ovarian it was 16.2 µM. Besides, the TGI is 18.1 µM in the test with SNB-19 CNS, 19.7 µM in the test on TK-10 renal, 14.6 µM in the test on U251 CNS and 19.1 µM with UACC-62 melanoma.

Consider `C[C@@H]1COC(Nc2ccc3ncnc(Nc4ccc(OCc5nccs5)c(Cl)c4)c3c2)=N1`, for which the GI50 with A549 NSCLC is > 10 µM and 5.3 µM; with COLO 205 colon it was 3.79 µM and 4.86 µM; with M14 melanoma, 3.16 µM and 4.12 µM; in the test with MDA-MB-231 breast, 6.04 µM and 8.22 µM; with MOLT-4 leukemia, 3.38 µM and 2.87 µM; in the test on OVCAR-8 ovarian it was 2.97 µM and 2.65 µM. For the same compound, the GI50 was > 10 µM and 12.4 µM in the test on SNB-19 CNS; 0.235 µM and 0.259 µM with TK-10 renal; 9.24 µM and 8.55 µM with U251 CNS; 6.14 µM and 3.39 µM with UACC-62 melanoma. Moreover, the TGI with A549 NSCLC is > 10 µM and 32.4 µM; with COLO 205 colon it was > 10 µM and 17.1 µM; in the test with M14 melanoma, > 10 µM and 16.9 µM; in the test on MDA-MB-231 breast, > 10 µM and 27.2 µM; in the test on MOLT-4 leukemia, > 10 µM and 8.72 µM; in the test with OVCAR-8 ovarian it was > 10 µM and 16.8 µM. For the same compound, the TGI was > 10 µM and 32.4 µM in the test with SNB-19 CNS; > 10 µM and 14.8 µM in the test on TK-10 renal; > 10 µM and 26.6 µM in the test with U251 CNS; > 10 µM and 14.9 µM in the test with UACC-62 melanoma.

As for `Cc1ccc2[nH]c(C(=O)NN3C(=O)C(C)SC34CCCCC4C)c(-c3ccccc3)c2c1` (stereo not given), the GI50 in the test on A549 NSCLC is 15.9 µM; with COLO 205 colon, 18 µM; in the test on M14 melanoma, 20.2 µM; in the test on MDA-MB-231 breast, 17.4 µM; with MOLT-4 leukemia, 12.2 µM; in the test with OVCAR-8 ovarian, 20.9 µM. The GI50 in the test on SNB-19 CNS was 27 µM; in the test on TK-10 renal it was 19.1 µM; in the test with U251 CNS, 16.1 µM; with UACC-62 melanoma, 13.4 µM. The TGI amounted to 32.9 µM in the test on A549 NSCLC; 38.9 µM in the test with COLO 205 colon; 38.8 µM in the test on M14 melanoma; 34.9 µM in the test with MDA-MB-231 breast; 41 µM with MOLT-4 leukemia; 43.2 µM in the test on OVCAR-8 ovarian. Moreover, the TGI in the test with SNB-19 CNS stood at 77.5 µM; with TK-10 renal, 35.6 µM; with U251 CNS it was 32.8 µM; with UACC-62 melanoma it was 28.3 µM.

As to `O=C(/C=C\c1ccc2ccccc2n1)c1cc(Cl)ccc1O`, the GI50 in the test with A549 NSCLC is 57.9 µM; in the test with COLO 205 colon it was 5.74 µM; in the test with M14 melanoma, 4.92 µM; in the test on MDA-MB-231 breast, 5.18 µM; in the test on MOLT-4 leukemia, 3.12 µM; in the test on OVCAR-8 ovarian it was 3.16 µM. For the same compound, the GI50 was 10.1 µM in the test with SNB-19 CNS, 7.88 µM in the test on TK-10 renal, 2.31 µM with U251 CNS and 7.51 µM in the test on UACC-62 melanoma. Further, the TGI is above 100 µM with A549 NSCLC; 18.4 µM with COLO 205 colon; 17.2 µM in the test on M14 melanoma; 24.3 µM in the test on MDA-MB-231 breast; 24.1 µM with MOLT-4 leukemia; 14.7 µM in the test on OVCAR-8 ovarian. Besides, the TGI in the test on SNB-19 CNS was 24.5 µM; in the test with TK-10 renal, 85.3 µM; in the test with U251 CNS it was 5.2 µM; in the test on UACC-62 melanoma it was 21 µM.

As to `CN(C)S(=O)(=O)c1ccc(Nc2ccc(O)c3c2C(=O)c2c([N+](=O)[O-])ccc(O)c2C3=O)cc1`, the TGI with A549 NSCLC, with COLO 205 colon, with M14 melanoma, with MDA-MB-231 breast, with MOLT-4 leukemia and with OVCAR-8 ovarian was above 100 µM in each case. In addition, the TGI in the test on SNB-19 CNS, in the test with TK-10 renal, in the test with U251 CNS and with UACC-62 melanoma was above 100 µM in each case.

For the compound `COC(=O)[C@]12CC=C3O[C@@H]4OC5(CCCCC5)O[C@@H]4[C@H]3C1C(=O)C=CC2=O` (stereo not given in full), the TGI turned out to be 55 µM with A549 NSCLC; 30.4 µM in the test on COLO 205 colon; 32 µM with M14 melanoma; 32.8 µM with MDA-MB-231 breast; 21.4 µM with MOLT-4 leukemia; 44.1 µM in the test with OVCAR-8 ovarian. The TGI in the test with SNB-19 CNS turned out to be 66.2 µM; in the test with TK-10 renal, 31.4 µM; with U251 CNS, 36.1 µM; in the test with UACC-62 melanoma, 30.2 µM.

For `Cc1ccc(Oc2nc3ccccc3cc2-c2nnc(Cn3c(COc4ccccc4)nc4ccccc43)o2)cc1`, the GI50 in the test on A549 NSCLC is 8.5 µM; in the test on COLO 205 colon, 1.89 µM; with M14 melanoma, 2.33 µM; in the test on MDA-MB-231 breast, 1.64 µM; in the test with MOLT-4 leukemia, 2.18 µM; with OVCAR-8 ovarian, 2.12 µM. Besides, the GI50 was 3.78 µM in the test on SNB-19 CNS, 3.91 µM in the test with TK-10 renal, 1.58 µM in the test on U251 CNS and 5.62 µM in the test with UACC-62 melanoma. Further, the TGI was determined as 24.2 µM in the test with A549 NSCLC; 4.44 µM in the test with COLO 205 colon; 7.4 µM with M14 melanoma; 4.62 µM in the test with MDA-MB-231 breast; 7.89 µM with MOLT-4 leukemia; 7.52 µM in the test on OVCAR-8 ovarian. Also, the TGI in the test with SNB-19 CNS stood at 17 µM; in the test on TK-10 renal, 9.92 µM; in the test on U251 CNS, 3.62 µM; in the test on UACC-62 melanoma, 20.7 µM.

As to `Oc1ccc(CN(Cc2ccc(C(F)(F)F)cc2)Cc2ccc(O)c3ncccc23)c2cccnc12`, the GI50 in the test with A549 NSCLC was 0.0349 µM; in the test with COLO 205 colon, 0.091 µM; in the test with M14 melanoma it was 0.0326 µM; in the test on MDA-MB-231 breast, 0.0566 µM; in the test on MOLT-4 leukemia, 0.0818 µM; with OVCAR-8 ovarian it was below 0.0142 µM. Further, the GI50 in the test on SNB-19 CNS is 0.0217 µM; in the test with TK-10 renal, 0.0165 µM; in the test with U251 CNS, below 0.01 µM; in the test on UACC-62 melanoma, 0.0395 µM. The TGI in the test on A549 NSCLC is above 100 µM; in the test on COLO 205 colon, above 100 µM; with M14 melanoma it was 2.17 µM; in the test with MDA-MB-231 breast, above 100 µM; in the test on MOLT-4 leukemia, above 100 µM; in the test on OVCAR-8 ovarian it was above 100 µM. Also, the TGI was above 100 µM with SNB-19 CNS, above 100 µM with TK-10 renal, above 100 µM in the test with U251 CNS and 0.927 µM in the test with UACC-62 melanoma.

Consider `COc1ccc(-n2c3c(c4c(CN(C)C)c(O)c(C)cc42)CCc2ccccc2C3=O)cc1`, for which the GI50 was 55.6 µM with A549 NSCLC; above 100 µM in the test on COLO 205 colon; 26.9 µM in the test with M14 melanoma; 25 µM in the test on MDA-MB-231 breast; 22.9 µM with MOLT-4 leukemia; 31.6 µM in the test on OVCAR-8 ovarian. Besides, the GI50 in the test on SNB-19 CNS was above 100 µM; in the test with TK-10 renal it was 47.2 µM; in the test on U251 CNS, 28.3 µM; in the test with UACC-62 melanoma it was 30.6 µM. Besides, the TGI with A549 NSCLC was above 100 µM; with COLO 205 colon it was above 100 µM; in the test on M14 melanoma, 97 µM; with MDA-MB-231 breast it was 90.1 µM; in the test on MOLT-4 leukemia it was 65.7 µM; in the test with OVCAR-8 ovarian it was above 100 µM. Besides, the TGI in the test with SNB-19 CNS, with TK-10 renal, in the test on U251 CNS and with UACC-62 melanoma was above 100 µM in each case.

For the origin of these results see PubChem BioAssay (NCI).
